Measurements: PMC4744035, “In Vivo, In Vitro, and In Silico Characterization of Peptoids as Antimicrobial Agents” (PLoS ONE, 2016)
Values after ≈ are worked out from the molar mass of the structure shown. Square brackets hold non-standard residues; d marks the D form. Peptide text beside a SMILES is read from it. Nspe = C[C@H](NCC(=O)O)c1ccccc1; Nlys = NCCCCNCC(=O)O

What was measured:
erythrocytes = test: Hemolytic activity (HD10/HD50); assay type: cell-based; conditions: erythrocytes
Text: Table 1 Characteristics of antimicrobial peptoids, screened for activity against B. subtilis and E. coli bacterial strains. | column: HD10 / HD50

P. aeruginosa 9 (MDR) = test: microbe, parasite or virus in culture; conditions: P. aeruginosa 9 (MDR)
Summary of the method: (§1)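 Growth inhibition is determined by modified microdilution in Mueller Hinton broth, with peptoids prepared in 0.01% acetic acid containing 0.2% bovine serum albumin. Final inoculum is 2–7 x 10^5 CFU/mL; endpoint is absence of growth after overnight 37°C.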

S. aureus ATCC25923 = test: microbe, parasite or virus in culture; conditions: S. aureus ATCC25923
Summary of the method: as §1

[1] = test system: P. aeruginosa LES400 (MDR); test: microbe, parasite or virus in culture; conditions: P. aeruginosa LES400 (MDR)
Summary of the method: as §1

P. aeruginosa 213 (MDR) = test: microbe, parasite or virus in culture; conditions: P. aeruginosa 213 (MDR)
Summary of the method: as §1

[2] = test system: K. pneumonia 61962 (ESBL); test: microbe, parasite or virus in culture; conditions: K. pneumonia 61962 (ESBL)
Summary of the method: as §1

[3] = test system: E. cloacae 218R Class C β-lactamase; test: microbe, parasite or virus in culture; conditions: E. cloacae 218R Class C β-lactamase
Summary of the method: as §1

E. faecalis ATCC29212 = test: microbe, parasite or virus in culture; conditions: E. faecalis ATCC29212
Summary of the method: as §1

[4] = test system: P. aeruginosa H103 (wild type); test: microbe, parasite or virus in culture; conditions: P. aeruginosa H103 (wild type)
Summary of the method: as §1

E. faecium T62764 (VRE) = test: microbe, parasite or virus in culture; conditions: E. faecium T62764 (VRE)
Summary of the method: as §1

[5] = test system: P. aeruginosa H1030 (MDR); test: microbe, parasite or virus in culture; conditions: P. aeruginosa H1030 (MDR)
Summary of the method: as §1

S. aureus C623 (MRSA) = test: microbe, parasite or virus in culture; conditions: S. aureus C623 (MRSA)
Summary of the method: as §1

C[C@@H](c1ccccc1)N(CC(N)=O)C(=O)CN(C(=O)CN(CCCCN)C(=O)CN(C(=O)CN(C(=O)CN(CCCCN)C(=O)CN(C(=O)CN(C(=O)CN(CCCCN)C(=O)CN(C(=O)CN(C(=O)CNCCCCN)[C@@H](C)c1ccccc1)[C@@H](C)c1ccccc1)[C@@H](C)c1ccccc1)[C@@H](C)c1ccccc1)[C@@H](C)c1ccccc1)[C@@H](C)c1ccccc1)[C@@H](C)c1ccccc1 [Peptoid 1, H-(NLys-Nspe-Nspe)4-NH2] (H-[Nlys][Nspe][Nspe][Nlys][Nspe][Nspe][Nlys][Nspe][Nspe][Nlys][Nspe][Nspe]-NH2)
HD10 (hemolytic activity) (erythrocytes; first value of HD10 / HD50 cell): 21
HD50 (hemolytic activity) (erythrocytes; second value of HD10 / HD50 cell): 100
MIC (P. aeruginosa 9 (MDR)): 16 µg/mL (≈ 8.79 µM)
MIC (S. aureus ATCC25923): 2 µg/mL (≈ 1.1 µM)
MIC [1]: 2 µg/mL (≈ 1.1 µM)
MIC (P. aeruginosa 213 (MDR)): 4 µg/mL (≈ 2.2 µM)
MIC [2]: 4 µg/mL (≈ 2.2 µM)
MIC [3]: 2 µg/mL (≈ 1.1 µM)
MIC (E. faecalis ATCC29212): 2 µg/mL (≈ 1.1 µM)
MIC [4]: 2 µg/mL (≈ 1.1 µM)
MIC (E. faecium T62764 (VRE)): 2 µg/mL (≈ 1.1 µM)
MIC [5]: 4 µg/mL (≈ 2.2 µM)
MIC (S. aureus C623 (MRSA)): 2 µg/mL (≈ 1.1 µM)
